Experimental data as given in US20200289480A1, “PERGOLIDE FOR USE IN THE TREATMENT OF EYE DISEASES ASSOCIATED WITH AN ELEVATED LEVEL OF VASCULAR ENDOTHELIAL GROWTH FACTOR (VEGF) AND PHARMACEUTICAL COMPOSITION CONTAINING PERGOLIDE” (priority 2017, published 2020).

Tests used:
[1] = system: development of normal blood vessels; experiment: zebrafish embryo model, development of normal blood vessels; assay type: in vivo, zebrafish (Danio rerio); details: for effect on the development of normal blood vessels: lower concentrations (below 2.5 μmol: 50 nmol, 100 nmol, 500 nmol, 1 μmol)
Method: (§1) In studies on the effect of various substances on VEGF release and action, among others, a laboratory model using zebrafish (Danio rerio) is employed. The study tested 3 substances with potential inhibitory activity towards VEGF release and action which belong to the group of dopaminergic receptor D2 agonists—bromocriptine, cabergoline and pergolide. The study was conducted on the model using transgenic zebrafish embryos (Zebrafish Fli strain) with labelled blood system, illuminating under the fluorescent microscope. Photographic documentation was collected using Stereo Discover v8 fluorescent microscope, fluorescence 200c hxp, from Carl Zeiss Microscopy GmbH. During the study, the development of normal blood vessels and pathological blood vessels (abnormal angiogenesis) was observed. Abnormal angiogenesis was induced with the use of cobalt chloride (CoCl2) in a dose of 5 mM which was administered to the culture medium. The study tested the inhibitory effect of bromocriptine, cabergoline and pergolide on the development of normal blood vessels, as well as the inhibition of abnormal angiogenesis in 5 increasing concentrations of these substances: 50 nmol, 100 nmol, 500 nmol, 1 μmol, 2.5 μmol, dissolved in dimethyl sulfoxide (DMSO) and administered to the culture medium. Any changes in the development of natural (FIG. 1) and pathological blood vessels (FIG. 2) were recorded 72 an 96 hours after the administration of a tested substance and a tested substance with CoCl2, respectively. The level of inhibition of normal and pathological blood vessels development in tested embryos was compared to the activity of bevacizumab (Avastin) at the concentration of 2.5 μg/ml, which is an anti-VEGF recombinant humanised monoclonal antibody (FIGS. 3).

[2] = system: pathological blood vessels (abnormal angiogenesis) induced with CoCl2; experiment: zebrafish embryo model, CoCl2-induced abnormal angiogenesis; assay type: in vivo, zebrafish (Danio rerio); details: for effect on the development of pathological blood vessels: lower concentrations (below 2.5 μmol: 50 nmol, 100 nmol, 500 nmol, 1 μmol); for effect on the development of pathological blood vessels / inhibition of growth of pathological eye blood vessels / inhibition of growth of ventral vessels: CoCl2 5 mM; for inhibitory effect compared with other agents: qualitative comparison in the angiogenesis model
Method: as §1, with “3). 72 and 96 after CoCl2 administration, the increase in the number of pathological eye blood vessels and the abnormal morphology thereof in the eyes (FIG. 2) as well as of ventral vessels (FIGS. 4 and 5) was observed.” for “3).”

[3] = 2.5 μmol in culture medium, transgenic Zebrafish Fli embryos, recorded 72 and 96 hours
[4] = 2.5 μmol in culture medium, recorded 72 and 96 hours

Compound: CC(C)C[C@H]1C(=O)N2CCC[C@H]2[C@]2(O)O[C@](NC(=O)[C@@H]3C=C4c5cccc6[nH]c(Br)c(c56)C[C@H]4N(C)C3)(C(C)C)C(=O)N12 [bromocriptine]
- effect on the development of normal blood vessels [1]: no inhibitory effect
- effect on the development of pathological blood vessels [2]: no inhibitory effect

Compound: C=CCN1C[C@H](C(=O)N(CCCN(C)C)C(=O)NCC)C[C@@H]2c3cccc4[nH]cc(c34)C[C@H]21 [cabergoline]
- inhibition of growth of normal eye blood vessels [1, 3]: partial inhibition
- effect on the development of normal blood vessels [1]: no significant effect
- inhibition of growth of pathological eye blood vessels [2, 4]: full inhibition
- inhibition of growth of ventral vessels [2, 4]: full inhibition
- inhibition of abnormal ventral vessels growth ([2]; 2.5 μmol, 72 hours, FIG. 8): Full inhibition
- effect on the development of ventral vessels ([2]; lower concentrations (below 2.5 μmol)): no significant effect
- effect on the development of pathological blood vessels [2]: no significant effect
- inhibitory effect compared with other agents [2]: more potent compared to bromocriptine

Compound: CCCN1C[C@H](CSC)C[C@@H]2c3cccc4[nH]cc(c34)C[C@H]21 [pergolide]
- inhibition of growth of normal eye blood vessels ([1]; 1.0 μmol in culture medium): partial inhibition
- inhibition of normal ventral vessels growth ([1]; 1 μmol, 72 hours, FIG. 9): Partial inhibition
- inhibition of growth of normal eye blood vessels [1, 3]: full inhibition
- inhibition of growth of pathological eye blood vessels ([2]; 1.0 μmol in culture medium): full inhibition
- inhibition of growth of ventral vessels ([2]; 1.0 μmol in culture medium): full inhibition
- inhibition of growth of pathological eye blood vessels [2, 4]: full inhibition
- inhibition of growth of ventral vessels [2, 4]: full inhibition
- inhibitory effect on the development of normal and pathological blood vessels (overall conclusion) ([2]; conclusion from all concentrations tested): potent inhibitory effect
- inhibitory effect compared with other agents [2]: more potent than for known agents

Compound: bevacizumab
- inhibition of CoCl2-induced abnormal vascular growth (eye) ([2]; 2.5 μmol, 96 hours, FIG. 3): Inhibition
